≈ marks a conversion by molar mass, not a printed value.
Tests used:
COX-2 = molecular target: T1, COX-2 (Ovis aries, UniProt P79208); assay: ovine COX-2 Inhibitor Screening Assay (Cayman, prostaglandin immunoassay); format: biochemical; conditions: ovine COX-2, arachidonic acid substrate; read-out: IC50 COX-2 inhibition
T1 construct: purchased Cayman Chemical 760101
T1 sequence (P79208 17-603): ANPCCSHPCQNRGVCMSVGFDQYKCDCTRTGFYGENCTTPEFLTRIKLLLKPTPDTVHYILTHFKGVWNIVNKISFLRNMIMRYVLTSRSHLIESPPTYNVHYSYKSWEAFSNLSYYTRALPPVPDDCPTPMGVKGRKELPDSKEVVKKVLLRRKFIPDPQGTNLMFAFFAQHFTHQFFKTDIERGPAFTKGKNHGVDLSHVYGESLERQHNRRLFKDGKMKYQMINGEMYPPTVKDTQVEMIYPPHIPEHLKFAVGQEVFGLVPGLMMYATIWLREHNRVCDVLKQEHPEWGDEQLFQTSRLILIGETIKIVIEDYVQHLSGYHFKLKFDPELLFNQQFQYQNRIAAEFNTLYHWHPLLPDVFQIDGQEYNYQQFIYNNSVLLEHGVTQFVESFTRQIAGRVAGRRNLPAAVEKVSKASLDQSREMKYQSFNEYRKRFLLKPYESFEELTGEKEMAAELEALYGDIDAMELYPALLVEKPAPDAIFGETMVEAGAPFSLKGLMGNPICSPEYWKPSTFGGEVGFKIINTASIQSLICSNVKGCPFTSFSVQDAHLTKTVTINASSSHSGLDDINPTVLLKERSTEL
Protocol: This immunoassay uses an antibody to that binds all major prostaglandins to measure quantitatively the amount of PGF2α produced in the COX reaction using arachidonic acid as a substrate. The final volume of the reactions as described below is typically 1.15 ml. In brief, COX-1 or COX-2 (e.g., 20 μl of a solution of from 1 to 100 units/ml COX, where a unit is defined as the amount of enzyme that consumes one nanomole of oxygen per minute at 37° C. in 0.1 M Tris-HCl buffer, pH 8.0 containing 100 μM arachidonate, 5 mM EDTA, 2 mM phenol and 1 μM hematin) is first mixed with a buffer (e.g., 0.1 M Tris, pH 8.0, 5 mM EDTA, 2 mM phenol) and heme (e.g., 10 μl of 10 mM heme) in a microfuge tube. The heme is a cofactor for COX that provides maximal activity in the assay. […] The prostaglandin produced in the reactions is typically quantified using an enzyme immunoassay.
The enzyme immunoassay to detect prostaglandin can conveniently be performed in a 96 well plate using an antibody to detect prostaglandin. As controls, prostaglandin standards and COX 100% activity samples (no inhibitor) can be measured. […] When ready to develop the plate, the reactions are first washed and then incubated with 200 μl of Ellman's reagent for 60 minutes or so. The plate can be read at 405 to 420 nm on a plate reader. […]

LNCaP cells = assay: LNCaP cell cycle by DNA content flow cytometry; format: cell-based; conditions: LNCaP cells exposed 24-48 hours, DAPI DNA content flow cytometry
Protocol: The cells were washed with phosphate buffered saline (PBS) and fixed in ice-cold 70% ethanol. […] ([…]. Juan, […]. Chen, F. Traganos and Z. Darzynkiewicz, “Apoptosis and Cell Cycle Effects Induced by Extracts of the Chinese Herbal Preparation of PC SPES”, International J. of Oncology (1997), 11: 437-448). The cellular DNA content was measured with an ELITE ESP flow cytometer (Coulter Inc., Fl.) using UV laser illumination. The multicycle program was used to deconvolute the DNA frequency histograms to estimate the frequency of cells in different phases of the cell cycle. […] Similar measurements were conducted for isoliquiritigenin.

[1] = tested on: PTX 10 (taxol resistant ovarian cancer cell line); assay: MTT cell viability assay, PTX 10 taxol-resistant ovarian cancer cells; format: cell-based; conditions: protocol as Example 1
Text: Cancer cell lines: LNCaP, DU-145, and MCF-7 cells were purchased from the American Type Culture Collection. PTX 10, a taxol-resistant ovarian cancer cell line, was obtained from the Brander Cancer Research Laboratory, New York Medical College. Cells were maintained in RPMI 1640 culture media supplemented with 10% heat-inactivated FBS, 5 millimolar glutamine, 50 units/milliliter of penicillin G, and 50 […] of streptomycin. The cells were routinely seeded at 1×10^5 cells/milliliter in T-75 flasks, allowed to attach overnight, then treated with the herbal extract. At different times, cells were harvested by trypsinization.
The assay reagents were purchased from Boehringer Mannheim (Roche Diagnosis Corp, Indianapolis, Ind.). […] The protocol for the cell viability assay was provided by the manufacturer and modified in our laboratory as described below.
After 24 hours, 20 microliter aliquots of the compounds at various concentrations were added to the attached cells. […] The plates were incubated at 37° C. in a CO2 incubator for 72 hours. At the end of day 3 (after 72 hours), the culture medium was carefully removed without disturbing the cells and replaced by 100 microliters of fresh cell medium.

[2] = tested on: MCF-7 breast cancer cells; assay: MTT cell viability assay, MCF-7 breast cancer cells; format: cell-based; conditions: concentration giving 50% inhibition of cancer cell growth, 72 hours, linear interpolation
Text: Cancer cell lines: LNCaP, DU-145, and MCF-7 cells were purchased from the American Type Culture Collection. […] Cells were maintained in RPMI 1640 culture media supplemented with 10% heat-inactivated FBS, 5 millimolar glutamine, 50 units/milliliter of penicillin G, and 50 […] of streptomycin. The cells were routinely seeded at 1×10^5 cells/milliliter in T-75 flasks, allowed to attach overnight, then treated with the herbal extract. At different times, cells were harvested by trypsinization. […] The assay reagents were purchased from Boehringer Mannheim (Roche Diagnosis Corp, Indianapolis, Ind.). […] The protocol for the cell viability assay was provided by the manufacturer and modified in our laboratory as described below. CSO-0001-P […] After 24 hours, 20 microliter aliquots of the compounds at various concentrations were added to the attached cells. […] The plates were incubated at 37° C. in a CO2 incubator for 72 hours. […] The plate was allowed to stand overnight in the CO2 incubator and read by an ELISA Reader (EL800, Bio-Tek Instruments, Inc.) at a wavelength of 570 nm. The percent cell viability was calculated according to the equation below: [formula] where V is the percent cell viability, Acontrol is the absorption of the control cells, and Atreated is the absorption of the treated cells. […]

[3] = tested on: DU-145 (androgen-independent) prostate cancer cells; assay: MTT cell viability assay, DU-145 prostate cancer cells; format: cell-based; conditions: concentration giving 50% inhibition of cancer cell growth, 72 hours, linear interpolation
Text: (§1) Cancer cell lines: LNCaP, DU-145, and MCF-7 cells were purchased from the American Type Culture Collection. […] Cells were maintained in RPMI 1640 culture media supplemented with 10% heat-inactivated FBS, 5 millimolar glutamine, 50 units/milliliter of penicillin G, and 50 […] of streptomycin. The cells were routinely seeded at 1×10^5 cells/milliliter in T-75 flasks, allowed to attach overnight, then treated with the herbal extract. At different times, cells were harvested by trypsinization. […] The assay reagents were purchased from Boehringer Mannheim (Roche Diagnosis Corp, Indianapolis, Ind.). […] The protocol for the cell viability assay was provided by the manufacturer and modified in our laboratory as described below. […] After 24 hours, 20 microliter aliquots of the compounds at various concentrations were added to the attached cells. […] The plates were incubated at 37° C. in a CO2 incubator for 72 hours. At the end of day 3 (after 72 hours), the culture medium was carefully removed without disturbing the cells and replaced by 100 microliters of fresh cell medium.

[4] = tested on: LNCaP (androgen-dependent) prostate cancer cells; assay: MTT cell viability assay, LNCaP prostate cancer cells; format: cell-based; conditions: concentration giving 50% inhibition of cancer cell growth, 72 hours, linear interpolation
Text: as §1

DU-145 cells = assay: DU-145 cell cycle by DNA content flow cytometry; format: cell-based; conditions: protocol of Example 3
Protocol: The cells were washed with phosphate buffered saline (PBS) and fixed in ice-cold 70% ethanol. […] ([…]. Juan, […]. Chen, F. Traganos and Z. Darzynkiewicz, “Apoptosis and Cell Cycle Effects Induced by Extracts of the Chinese Herbal Preparation of PC SPES”, International J. of Oncology (1997), 11: 437-448). The cellular DNA content was measured with an ELITE ESP flow cytometer (Coulter Inc., Fl.) using UV laser illumination. The multicycle program was used to deconvolute the DNA frequency histograms to estimate the frequency of cells in different phases of the cell cycle.

| SMILES | IC50 (COX-2) [µM] | effect on LNCaP cell cycle phases (G1, S, G2M) (LNCaP cells) | ED50 PTX 10 (taxol resistant ovarian cancer cell) [1] [µg/mL] | ED50 from MTT assay, MCF7 [2] [µg/mL] | ED50 from MTT assay, DU145 [3] [µg/mL] | ED50 from MTT assay, LNCaP [4] [µg/mL] | effect on DU-145 cell cycle phases (DU-145 cells) |
| --- | --- | --- | --- | --- | --- | --- | --- |
| O=C(/C=C/c1ccc(O)cc1)c1ccc(O)cc1O [Isoliquiritigenin, 2′,4,4′-trihydroxychalcone] | 10.5 | induced a G2M phase arrest | 3.32 (≈ 13 µM) | 3.25 (≈ 12.7 µM) | 7.60 (≈ 29.7 µM) | 3.51 (≈ 13.7 µM) | – |
| COc1c(O)cc(O)c2c(=O)cc(-c3ccccc3)oc12 [Wogonin, 5,7-dihydroxy-8-methoxy-flavone] | – | induced a G1 phase arrest | – | – | – | – | prolonged the G2M phase |
